The record followed here is ChEMBL document CHEMBL5550210, “Discovery of Novel α,β-Unsaturated Amide Derivatives as Candidate Antifungals to Overcome Fungal Resistance” (J Med Chem, 2024).

Converted amounts (≈) assume the structure as drawn. The source made the active and inactive calls.

The test system of data set [1] is Candida albicans. In words: Antifungal activity against Candida albicans CPCC400616 assessed as inhibition of fungal growth by CLSI protocol based microdilution method. Format: functional. (In general: Dilution methods test growth across graded concentrations, often in twofold steps.)
Data set [2] relates to Candida albicans. The data set is described as follows: Antifungal activity against Candida albicans SC5314 assessed as inhibition of fungal growth by CLSI protocol based microdilution method. Format: functional.
In another data set the test system is Candida parapsilosis. In words: Antifungal activity against Candida parapsilosis ATCC 22019 assessed as inhibition of fungal growth by CLSI protocol based microdilution method. The settings on record: Lodderomyces parapsilosis. Format: functional.
The next data set concerns Nakaseomyces glabratus. In words: Antifungal activity against Candida glabrata assessed as inhibition of fungal growth by CLSI protocol based microdilution method. Format: functional.
Another data set relates to Pichia kudriavzevii. The data set is described as follows: Antifungal activity against Candida krusei AS 2.1045 assessed as inhibition of fungal growth by CLSI protocol based microdilution method. Format: functional.
In a further data set the test system is Candida tropicalis. The data set is described as follows: Antifungal activity against Candida tropicalis CGMCC 2.3739 assessed as inhibition of fungal growth by CLSI protocol based microdilution method. Format: functional.
The subject of a further data set is Cryptococcus neoformans. The data set is described as follows: Antifungal activity against Cryptococcus neoformans CGMCC2.3161 assessed as inhibition of fungal growth by CLSI protocol based microdilution method. Format: functional.
In another data set the test system is Aspergillus fumigatus. The data set is described as follows: Antifungal activity against Aspergillus fumigatus CGMCC 3.7795 assessed as inhibition of fungal growth by CLSI protocol based microdilution method. Format: functional.
Data set [3] can be described thus: Half life in mouse plasma measured at 180 mins. Format: ADME, cell-free.
The subject of data set [4] is Candida albicans. The data set is described as follows: Antifungal activity against fluconazole-resistant Candida albicans CaR assessed as inhibition of fungal growth by CLSI based microdilution method. Format: functional.
Data set [5] relates to Candida albicans. The data set is described as follows: Antifungal activity against fluconazole-resistant Candida albicans 17 assessed as inhibition of fungal growth by CLSI based microdilution method. Format: functional.
For data set [6], the system named is Candida albicans. The data set is described as follows: Antifungal activity against fluconazole-resistant Candida albicans 632 assessed as inhibition of fungal growth by CLSI based microdilution method. Format: functional.
For data set [7], the system named is Candida albicans. The data set is described as follows: Antifungal activity against fluconazole-resistant Candida albicans 904 assessed as inhibition of fungal growth by CLSI based microdilution method. Format: functional.
The test system of data set [8] is Candida albicans. In words: Antifungal activity against fluconazole-resistant Candida albicans 901 assessed as inhibition of fungal growth by CLSI based microdilution method. Format: functional.
A short description of data set [9]: Metabolic stability in mouse liver microsomes assessed as half life. Format: ADME, Microsome. On the technique in general: Microsomes from liver hold many membrane-bound enzymes, among them those of drug oxidation.
A short description of data set [10]: Stability in mouse plasma assessed as parent compound remaining measured at 180 mins. Format: ADME, cell-free. The settings on record: read-out: Stability.
The test system of data set [11] is Candida albicans. The data set is described as follows: Antifungal activity against Candida albicans assessed as inhibition of fungal growth by CLSI protocol based microdilution method. Format: functional.
Data set [12] concerns Candida albicans. In words: Fungicidal activity against Candida albicans assessed as inhibition of fungal growth measured after 48 hrs by CLSI protocol based microdilution method. Format: functional.
In data set [13] the target is T1, Lanosterol 14-alpha demethylase (Candida albicans (strain SC5314 / ATCC MYA-2876) (Yeast), UniProt P10613). The data set is described as follows: Inhibition of CYP51 in Candida albicans SC5314 assessed as reduction in ergosterol content at 0.031 ug/ml incubated for 24 hrs by GC-MS analysis relative to control. The settings on record: at 0.031 µg/mL.
In data set [14] the target is T1, Lanosterol 14-alpha demethylase. The data set is described as follows: Inhibition of CYP51 in Candida albicans SC5314 assessed as increase in obtusifoliol level at 0.031 ug/ml incubated for 24 hrs by GC-MS analysis relative to control. The settings on record: at 0.031 µg/mL.
Data set [15] shares this target. In words: Inhibition of CYP51 in Candida albicans SC5314 assessed as increase in lanosterol level at 0.031 ug/ml incubated for 24 hrs by GC-MS analysis relative to control. Conditions: at 0.031 µg/mL.
Data set [16] shares this target. The data set is described as follows: Inhibition of CYP51 in Candida albicans SC5314 assessed as increase in eburicol level at 0.031 ug/ml incubated for 24 hrs by GC-MS analysis relative to control. The settings on record: at 0.031 µg/mL.
Data set [17] relates to Candida albicans. In words: Antifungal activity against Candida albicans SC5314 assessed as fungal cell membrane injury at 16 ug/ml incubated for 24 hrs by transmission electron microscopic analysis. Format: functional, organism-based. Conditions: dose 16.0 µg/ml.
Data set [18] deals with Candida albicans. In words: Antifungal activity against Candida albicans SC5314 assessed as leakage of endogenous substances at 16 ug/ml incubated for 24 hrs by transmission electron microscopic analysis. Format: functional, organism-based. The settings on record: dose 16.0 µg/ml.

T1 sequence (P10613 whole entry): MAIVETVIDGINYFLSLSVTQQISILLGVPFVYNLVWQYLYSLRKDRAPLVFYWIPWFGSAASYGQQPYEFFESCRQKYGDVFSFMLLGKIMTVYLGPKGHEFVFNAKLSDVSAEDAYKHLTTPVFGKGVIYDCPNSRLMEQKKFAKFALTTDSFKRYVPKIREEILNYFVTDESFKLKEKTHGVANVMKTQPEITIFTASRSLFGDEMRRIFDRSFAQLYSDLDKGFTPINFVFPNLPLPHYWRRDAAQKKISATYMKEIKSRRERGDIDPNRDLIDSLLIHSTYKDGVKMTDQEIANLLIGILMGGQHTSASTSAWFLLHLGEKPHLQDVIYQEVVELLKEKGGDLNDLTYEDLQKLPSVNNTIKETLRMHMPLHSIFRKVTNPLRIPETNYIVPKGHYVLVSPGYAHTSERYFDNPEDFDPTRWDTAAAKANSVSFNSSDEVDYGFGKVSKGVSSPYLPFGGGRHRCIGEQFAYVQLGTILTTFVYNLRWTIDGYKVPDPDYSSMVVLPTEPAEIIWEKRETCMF

By MIC is commonly meant the smallest concentration in the dilution series that meets the test's criterion for growth inhibition. The term half-life denotes the time in which the quantity being followed falls by half. Regarding `Clc1ccc(COC(Cn2ccnc2)c2ccc(Cl)cc2Cl)c(Cl)c1` (configuration not stated) [MICONAZOLE], the MIC in the data set with Candida albicans [1] was found to be 0.25 µg/mL (≈ 0.601 µM); in the data set with Candida albicans [2], 0.03 µg/mL (≈ 0.0721 µM); in the data set on Candida parapsilosis it was 0.25 µg/mL (≈ 0.601 µM); in the data set with Nakaseomyces glabratus, 0.5 µg/mL (≈ 1.2 µM); in the data set with Pichia kudriavzevii, 0.5 µg/mL (≈ 1.2 µM); in the data set with Candida tropicalis, 1 µg/mL (≈ 2.4 µM). The MIC in the data set with Cryptococcus neoformans stood at 0.25 µg/mL (≈ 0.601 µM); in the data set with Aspergillus fumigatus, 2 µg/mL (≈ 4.81 µM). In data set [3], the half-life was above 6 h.

With `O=c1ccc2ccc(COC(Cn3ccnc3)c3ccc(Cl)cc3Cl)cc2o1` (configuration not stated), the MIC was found to be 0.06 µg/mL (≈ 0.144 µM) with Candida albicans [1]; 0.03 µg/mL (≈ 0.0722 µM) in the data set on Candida albicans [2]; 0.5 µg/mL (≈ 1.2 µM) in the data set with Candida parapsilosis; 0.5 µg/mL (≈ 1.2 µM) with Nakaseomyces glabratus; 2 µg/mL (≈ 4.82 µM) with Pichia kudriavzevii; 0.25 µg/mL (≈ 0.602 µM) in the data set with Candida tropicalis. Also, the MIC with Cryptococcus neoformans turned out to be 2 µg/mL (≈ 4.82 µM); with Aspergillus fumigatus, 1 µg/mL (≈ 2.41 µM); in the data set on Candida albicans [4], 1 µg/mL (≈ 2.41 µM); in the data set on Candida albicans [5], 4 µg/mL (≈ 9.63 µM); in the data set with Candida albicans [6], 4 µg/mL (≈ 9.63 µM); in the data set with Candida albicans [7], 1 µg/mL (≈ 2.41 µM). The MIC in the data set with Candida albicans [8] amounted to 4 µg/mL (≈ 9.63 µM). For the same compound, the half-life in data set [3] was above 6 h.

Broadly, the MFC is the lowest tested concentration that kills the fungus rather than only halting it. Regarding `OC(Cn1cncn1)(Cn1cncn1)c1ccc(F)cc1F` [FLUCONAZOLE], the MIC with Candida albicans [1] came out at 4 µg/mL (≈ 13.1 µM); with Candida albicans [2], 0.5 µg/mL (≈ 1.63 µM); with Candida parapsilosis it was 4 µg/mL (≈ 13.1 µM); with Nakaseomyces glabratus, 32 µg/mL (≈ 104 µM); with Pichia kudriavzevii, 32 µg/mL (≈ 104 µM); with Candida tropicalis, 2 µg/mL (≈ 6.53 µM). Besides, the MIC was 4 µg/mL (≈ 13.1 µM) in the data set with Cryptococcus neoformans; above 128 µg/mL with Aspergillus fumigatus; above 128 µg/mL with Candida albicans [4]; above 128 µg/mL in the data set on Candida albicans [5]; above 128 µg/mL with Candida albicans [6]; above 128 µg/mL in the data set on Candida albicans [7]. Also, the MIC in the data set with Candida albicans [8] and with Candida albicans [11] was above 128 µg/mL throughout. The half-life in data set [9] is above 2 h; in data set [3], above 6 h. Further, in data set [10], the remaining at 3 h was found to be 116%. The MFC in the data set on Candida albicans [12] was above 128 µg/mL. The “inhibition (INH)” value in [13] is 48.4%; in data set [14] it was “Active”; in data set [15] it was “Active”; in data set [16], “Active”. In addition, the outcome in the data set on Candida albicans [17] and in the data set on Candida albicans [18] was Active.
